In ChEMBL document CHEMBL3822421, “Insights into the structure-activity relationship of the anticancer compound ZJ-101, a derivative of marine natural product superstolide A: A critical role played by the conjugated trienyl lactone moiety” (Bioorg Med Chem Lett, 2016):

Tests used:
Format in all cases: functional, cell-based
[1] = Antiproliferative activity against human SF295 cells after 48 to 72 hrs by Alamar blue assay; details: SF-295
[2] = tested on: RKO; experiment: Antiproliferative activity against human RKO cells after 48 to 72 hrs by Alamar blue assay
[3] = tested on: MCF7; experiment: Antiproliferative activity against human MCF7 cells after 48 to 72 hrs by Alamar blue assay
[4] = tested on: MDA-MB-231; experiment: Antiproliferative activity against human MDA-MB-231 cells after 48 to 72 hrs by Alamar blue assay

Structure (SMILES)	IC50 [1] [nM]	IC50 [2] [nM]	IC50 [3] [nM]	IC50 [4] [nM]
CC(=O)N[C@H](C)[C@@H](O)[C@@H](C)[C@@H]1OC(=O)/C=C/C=C(C)\C=C\[C@]2(C)CCC=C[C@@H]2/C=C(C)/C=C/[C@H]1C	63.5	214	36.5	63
CC(=O)N[C@H](C)[C@@H](O)[C@@H](C)[C@@H]1OC(=O)/C=C/C=C(C)/C=C/[C@]2(C)CCC=C[C@@H]2/C=C(C)/C=C/[C@H]1C	611	1070	376	384
CC(=O)N[C@H](C)[C@@H](O)[C@@H](C)[C@@H]1OC(=O)CC/C=C(C)\C=C\[C@]2(C)CCC=C[C@@H]2/C=C(C)/C=C/[C@H]1C	> 5000	> 5000	> 5000	> 5000
